Assay results as given in patent US9771372B2, “Compounds useful as S100-inhibitors” (Active Biotech AB, priority 2014, dated 2017).

Each molecule was assayed against T1, interaction between biotinylated human S100A9 and human RAGE-Fc (Homo sapiens, UniProt P06702) (assay: AlphaScreen inhibition assay, Biot-hS100A9:hRAGE-Fc (S100A9-RAGE inhibition assay)). Details: biot-hS100A9 and rhRAGE-Fc, Ca2+ and Zn2+ in buffer.
T1 construct: made in house; host or cells: E. coli BL21(DE3)/pET1120 (pLR757)
T1 sequence (P06702 1-114): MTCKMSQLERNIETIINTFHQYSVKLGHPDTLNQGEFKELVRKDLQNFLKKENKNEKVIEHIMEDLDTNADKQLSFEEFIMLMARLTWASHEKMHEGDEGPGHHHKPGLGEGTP
Type: binding
How it was run: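 Biotinylated human S100A9, in HBS-P with CaCl2 and ZnCl2, preincubated 1 h at room temperature in the dark with compound (final DMSO ≤1.25%), then combined with rhRAGE-Fc on protein A Acceptor beads plus streptavidin Donor beads (20 μg/mL each). Protein levels batch-dependent; percent inhibition from AlphaScreen signal vs DMSO-only control.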
With `O=C(CCC1CCCC1)NC1(C(F)(F)F)C(=O)Nc2nc3c(F)cc(F)cc3n21` (centres unmarked) [Example 86, 3-cyclopentyl-N-[9,11-difluoro-4-oxo-3-(trifluoromethyl)-2,5,7-triazatricyclo-[6.4.0.0^2,6]dodeca-1(12),6,8,10-tetraen-3-yl]propanamide] the IC50 was 6.4 µM.
`O=C(NC1(C(F)(F)F)C(=O)Nc2nc3cc(Cl)c(Cl)cc3n21)C1CN(c2ccccn2)C1` (centres unmarked) [Example 52, N-[10,11-dichloro-4-oxo-3-(trifluoromethyl)-2,5,7-triazatricyclo[6.4.0.0^2,6]dodeca-1(12),6,8,10-tetraen-3-yl]-1-(pyridin-2-yl)azetidine-3-carboxamide] showed an IC50 of 0.7 µM.
`O=C(NC1(C(F)(F)F)C(=O)Nc2nc3cc(Cl)c(Cl)cc3n21)C1CNC1` (centres unmarked) [Example 47, N-[10,11-dichloro-4-oxo-3-(trifluoromethyl)-2,5,7-triazatricyclo[6.4.0.0^2,6]dodeca-1(12),6,8,10-tetraen-3-yl]azetidine-3-carboxamide] was tested, and the IC50 was 3.9 µM.
Molecule `Cc1cc2nc3n(c2cc1C)C(NC(=O)CCC1CCCC1)(C(F)(F)F)C(=O)N3` (centres unmarked) [Example 27, 3-cyclopentyl-N-[10,11-dimethyl-4-oxo-3-(trifluoromethyl)-2,5,7-triazatricyclo[6.4.0.0^2,6]-dodeca-1(12),6,8,10-tetraen-3-yl]propanamide] has an IC50 of 0.4 µM.
With `Cc1cc2nc3n(c2cc1C)C(NC(=O)c1ccc(-c2ccccc2)cc1)(C(F)(F)F)C(=O)N3` (centres unmarked) [Example 18, N-[10,11-dimethyl-4-oxo-3-(trifluoromethyl)-2,5,7-triazatricyclo[6.4.0.0^2,6]dodeca-1(8),6,9,11-tetraen-3-yl]-4-phenylbenzamide] the IC50 was 2 µM.
`O=C(NC1(C(F)(F)F)C(=O)Nc2nc3cc(Cl)c(Cl)cc3n21)C1CC2(CNC2)C1` (centres unmarked) [Example 40, N-[10,11-dichloro-4-oxo-3-(trifluoromethyl)-2,5,7-triazatricyclo[6.4.0.0^2,6]dodeca-1(12),6,8,10-tetraen-3-yl]-2-azaspiro[3.3]heptane-6-carboxamide] was tested, and the IC50 was 3.3 µM.
Molecule `O=C(NC1(C(F)(F)F)C(=O)Nc2nc3cc(Cl)c(Cl)cc3n21)c1cccc(OCC(F)(F)F)n1` (centres unmarked) [Example 64, N-[10,11-dichloro-4-oxo-3-(trifluoromethyl)-2,5,7-triazatricyclo[6.4.0.0^2,6]dodeca-1(12),6,8,10-tetraen-3-yl]-6-(2,2,2-trifluoroethoxy)pyridine-2-carboxamide] has an IC50 of 1.3 µM.
For `COCCNc1cccc(C(=O)NC2(C(F)(F)F)C(=O)Nc3nc4cc(C)c(C)cc4n32)n1` (single isomer, unassigned) [Example 220a, N-[10,11-dimethyl-4-oxo-3-(trifluoromethyl)-2,5,7-triazatricyclo[6.4.0.0^2,6]dodeca-1(12),6,8,10-tetraen-3-yl]-6-[(2-methoxyethyl)amino]pyridine-2-carboxamide], the IC50 was 1.93 µM.
Molecule `O=C(NC1(C(F)(F)F)C(=O)Nc2nc3cc(Cl)c(Cl)cc3n21)c1cccc(Cl)c1` (centres unmarked) [Example 56, 3-chloro-N-[10,11-dichloro-4-oxo-3-(trifluoromethyl)-2,5,7-triazatricyclo[6.4.0.0^2,6]-dodeca-1(12),6,8,10-tetraen-3-yl]benzamide] has an IC50 of 1.4 µM.
`O=C(NC1(C(F)(F)F)C(=O)Nc2nc3cc(Cl)c(Cl)cc3n21)c1cccc(Cl)n1` (centres unmarked) [Example 62, 6-chloro-N-[10,11-dichloro-4-oxo-3-(trifluoromethyl)-2,5,7-triazatricyclo[6.4.0.0^2,6]-dodeca-1(12),6,8,10-tetraen-3-yl]pyridine-2-carboxamide] was tested, and the IC50 was 1.1 µM.
`O=C(CCC1CCCC1)NC1(C(F)(F)F)C(=O)Nc2nc3cc(F)c(F)cc3n21` (centres unmarked) [Example 73, 3-cyclopentyl-N-[10,11-difluoro-4-oxo-3-(trifluoromethyl)-2,5,7-triazatricyclo-[6.4.0.0^2,6]dodeca-1(12),6,8,10-tetraen-3-yl]propanamide] gave an IC50 of 2.8 µM.
